Reference: patent publication EP4745135A1 (Gluetacs Therapeutics (Shanghai) Co., Ltd., priority 2023, dated 2025)

Assays:
GSPT1 = test: Western blot, degradation of substrate protein in hPBMCs; format: cell-based, Human
[1] = system: Human myeloid monocytic leukemia cell (MV-4-11); test: Tumor cell proliferation inhibition (CellTiter-Meiluncell luminescent cell viability assay); conditions: MV4-11, 96 h; for inhibition at 0.01 µM: read-out: Inhibition Rate at 10 nM (%); for inhibition at 0.5 µM: read-out: Inhibition Rate at 500 nM (%)
[2] = system: Human multiple myeloma peripheral blood B lymphocyte cell (RPMI-8226); test: as above; conditions: RPMI-8226, 96 h; for inhibition at 0.01 µM: read-out: Inhibition Rate at 10 nM (%); for inhibition at 0.5 µM: read-out: Inhibition Rate at 500 nM (%)
[3] = system: Human acute T lymphocytic leukemia cell (Molt4); test: as above; conditions: MOLT-4, 96 h; for inhibition at 0.01 µM: read-out: Inhibition Rate at 10 nM (%); for inhibition at 0.5 µM: read-out: Inhibition Rate at 500 nM (%)
[4] = system: Human T lymphocytic leukemia cell line: Jurkat; test: as above; conditions: 96 h; for inhibition at 0.01 µM: read-out: Inhibition Rate at 10 nM (%); for inhibition at 0.5 µM: read-out: Inhibition Rate at 500 nM (%)
Method: (§1) The tumor cells used herein were cultured in a cell culture medium listed in table 2 at 37°C in an incubator with 5% CO2. Prior to experimentation, all cell lines used were correctly identified by STR profiling, and tested negative for mycoplasma contamination using a mycoplasma detection kit through routine screenings.
(§2) The IC50 values of the compounds of the present disclosure (including the compounds in Table 1 and Examples) were determined using the CellTiter-Meiluncell Luminescent Cell Viability Assay Kit from Dalian Meilun Biotech Co., Ltd. The detailed procedure is as follows: Tumor cells were seeded in 96-well cell culture plates at the densities specified in Table 3. On the following day, the test compounds of the present disclosure were subjected to serial dilution. The dilution can be performed according to one of the following two methods: • (1) The first dilution method: The test compounds of the present disclosure (including the compounds in Table 1 and Examples) were subjected to 5-fold serial dilutions starting from a highest concentration of 2000 µM, resulting in a total of 9 concentrations from high to low (2000, 400, 80, 16, 3.2, 0.64, 0.128, 0.0256, 0.00512 µM). Subsequently, 0.5 µL of the test compound dilution was transferred into the 96-well plate containing the cells, with each well containing 100 µL of cell culture medium. […] Into the 96-well plate, the diluted test compounds and corresponding detection reagents were added, resulting in final test compound concentrations of 500 nM and 10 nM, respectively. The experimental procedure is described below using the diluted 2 µM test compound as an example.
(§3) 0.5 µL of the aforementioned diluted compound of the present disclosure (including the compounds in Table 1 and Examples) was added to the seeded cells in 100 µL of medium, yielding a final test compound concentration of 10 nM. After the cells were treated with the compounds of the present disclosure for a specified period, the cell viability assay reagent was added to the culture medium according to the kit's instructions to determine cell viability. […] All controls were treated using the same procedure as the compounds of the present disclosure. The growth inhibition curves for the compounds of the present disclosure were plotted using Prism GraphPad software, and the IC50 values were calculated therefrom.

[5] = biological target: T1, human Cereblon WT GST-tagged protein (Homo sapiens, UniProt Q96SW2); test: CRBN-binding affinity, HTRF (CEREBLON BINDING kit); conditions: for inhibition at 0.5 µM: read-out: Inhibition Rate at 0.5 µM (%); for inhibition at 2 µM: read-out: Inhibition Rate at 2 µM (%)
T1 construct: purchased CISBIO 64BDCRBNPEH

[6] = system: Human T cell acute lymphoblastic leukemia cell (CCRF-CEM); test: Tumor cell proliferation inhibition (CellTiter-Meiluncell luminescent cell viability assay); conditions: 96 h; for inhibition at 0.01 µM: read-out: Inhibition Rate at 10 nM (%); for inhibition at 0.5 µM: read-out: Inhibition Rate at 500 nM (%)
Method: as §1, §2, §3

[7] = system: Human multiple myeloma cell (MM.1S); test: as above; conditions: for inhibition at 0.01 µM / inhibition at 0.5 µM: Homo sapiens, MM1.S, 96 h; for inhibition at 0.01 µM: read-out: Inhibition Rate at 10 nM (%); for inhibition at 0.5 µM: read-out: Inhibition Rate at 500 nM (%)
[8] = system: Human breast cancer cell (MCF-7); test: as above; conditions: MCF7, 96 h; for inhibition at 0.5 µM: read-out: Inhibition Rate at 500 nM (%); for inhibition at 0.01 µM: read-out: Inhibition Rate at 10 nM (%)
[9] = system: Human acute myeloid leukemia cell line: Kasumi-1; test: as above; conditions: Kasumi 1, 96 h; for inhibition at 0.01 µM: read-out: Inhibition Rate at 10 nM (%); for inhibition at 0.5 µM: read-out: Inhibition Rate at 500 nM (%)
IKZF3 = biological target: T2, IKZF3 (Homo sapiens, UniProt Q96SW2+Q9UKT9); test: Western blot, degradation of substrate protein in hPBMCs; format: cell-based
T2 construct: effects of the compounds of the present disclosure on the expression of target proteins in cells; endogenous in cells; host or cells: human PBMCs (Milecell Biotechnologies)

CK1α = biological target: T3, CK1α (Homo sapiens, UniProt P48729+Q96SW2); test: as above; format: cell-based
T3 construct: effects of the compounds of the present disclosure on the expression of target proteins in cells; endogenous in cells; host or cells: human PBMCs (Milecell Biotechnologies)

IKZF1 = biological target: T4, IKZF1 (Homo sapiens, UniProt Q13422+Q96SW2); test: as above; format: cell-based
T4 construct: effects of the compounds of the present disclosure on the expression of target proteins in cells; endogenous in cells; host or cells: human PBMCs (Milecell Biotechnologies)

IKZF2 = biological target: T5, IKZF2 (Homo sapiens, UniProt Q96SW2+Q9UKS7); test: as above; format: cell-based
T5 construct: effects of the compounds of the present disclosure on the expression of target proteins in cells; endogenous in cells; host or cells: human PBMCs (Milecell Biotechnologies)

WEE1 = biological target: T6, WEE1 (Homo sapiens, UniProt P30291+Q96SW2); test: as above; format: cell-based
T6 construct: effects of the compounds of the present disclosure on the expression of target proteins in cells; endogenous in cells; host or cells: human PBMCs (Milecell Biotechnologies)

[10] = system: Human malignant melanoma cell line: A375; test: Tumor cell proliferation inhibition (CellTiter-Meiluncell luminescent cell viability assay); conditions: A-375, 96 h
Method: as §1, §2, §3

[11] = 24 hours treatment, compounds at 50 nM and 500 nM (concentration behind the class not stated)
[12] = Western blot, 24 hours of compound treatment, compounds tested at 50 nM and 500 nM (concentration for the table not stated)

T3 sequence (P48729 whole entry): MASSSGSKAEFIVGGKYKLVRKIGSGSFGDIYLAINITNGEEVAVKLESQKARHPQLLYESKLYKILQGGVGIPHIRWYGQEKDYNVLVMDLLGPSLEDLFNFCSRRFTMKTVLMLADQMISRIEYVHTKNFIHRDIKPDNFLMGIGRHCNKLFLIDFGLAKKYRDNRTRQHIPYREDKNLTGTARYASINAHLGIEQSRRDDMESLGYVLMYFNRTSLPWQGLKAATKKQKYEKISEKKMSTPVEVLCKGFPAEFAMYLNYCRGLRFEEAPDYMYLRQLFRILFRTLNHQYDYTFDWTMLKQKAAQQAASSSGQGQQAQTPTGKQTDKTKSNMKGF
T3 sequence (Q96SW2 whole entry): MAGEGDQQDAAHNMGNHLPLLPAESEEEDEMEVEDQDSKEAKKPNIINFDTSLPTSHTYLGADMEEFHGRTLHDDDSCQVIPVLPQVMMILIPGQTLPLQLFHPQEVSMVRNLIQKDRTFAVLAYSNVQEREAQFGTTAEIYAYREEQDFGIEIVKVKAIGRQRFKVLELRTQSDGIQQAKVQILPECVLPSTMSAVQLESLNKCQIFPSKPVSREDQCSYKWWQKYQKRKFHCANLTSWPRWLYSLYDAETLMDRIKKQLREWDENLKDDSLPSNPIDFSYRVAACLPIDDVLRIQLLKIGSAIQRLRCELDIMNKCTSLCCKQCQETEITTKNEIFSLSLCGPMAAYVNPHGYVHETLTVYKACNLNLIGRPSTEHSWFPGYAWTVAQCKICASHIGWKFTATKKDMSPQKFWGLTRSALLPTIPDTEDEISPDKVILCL
T3 sequence (Q16531 whole entry partner): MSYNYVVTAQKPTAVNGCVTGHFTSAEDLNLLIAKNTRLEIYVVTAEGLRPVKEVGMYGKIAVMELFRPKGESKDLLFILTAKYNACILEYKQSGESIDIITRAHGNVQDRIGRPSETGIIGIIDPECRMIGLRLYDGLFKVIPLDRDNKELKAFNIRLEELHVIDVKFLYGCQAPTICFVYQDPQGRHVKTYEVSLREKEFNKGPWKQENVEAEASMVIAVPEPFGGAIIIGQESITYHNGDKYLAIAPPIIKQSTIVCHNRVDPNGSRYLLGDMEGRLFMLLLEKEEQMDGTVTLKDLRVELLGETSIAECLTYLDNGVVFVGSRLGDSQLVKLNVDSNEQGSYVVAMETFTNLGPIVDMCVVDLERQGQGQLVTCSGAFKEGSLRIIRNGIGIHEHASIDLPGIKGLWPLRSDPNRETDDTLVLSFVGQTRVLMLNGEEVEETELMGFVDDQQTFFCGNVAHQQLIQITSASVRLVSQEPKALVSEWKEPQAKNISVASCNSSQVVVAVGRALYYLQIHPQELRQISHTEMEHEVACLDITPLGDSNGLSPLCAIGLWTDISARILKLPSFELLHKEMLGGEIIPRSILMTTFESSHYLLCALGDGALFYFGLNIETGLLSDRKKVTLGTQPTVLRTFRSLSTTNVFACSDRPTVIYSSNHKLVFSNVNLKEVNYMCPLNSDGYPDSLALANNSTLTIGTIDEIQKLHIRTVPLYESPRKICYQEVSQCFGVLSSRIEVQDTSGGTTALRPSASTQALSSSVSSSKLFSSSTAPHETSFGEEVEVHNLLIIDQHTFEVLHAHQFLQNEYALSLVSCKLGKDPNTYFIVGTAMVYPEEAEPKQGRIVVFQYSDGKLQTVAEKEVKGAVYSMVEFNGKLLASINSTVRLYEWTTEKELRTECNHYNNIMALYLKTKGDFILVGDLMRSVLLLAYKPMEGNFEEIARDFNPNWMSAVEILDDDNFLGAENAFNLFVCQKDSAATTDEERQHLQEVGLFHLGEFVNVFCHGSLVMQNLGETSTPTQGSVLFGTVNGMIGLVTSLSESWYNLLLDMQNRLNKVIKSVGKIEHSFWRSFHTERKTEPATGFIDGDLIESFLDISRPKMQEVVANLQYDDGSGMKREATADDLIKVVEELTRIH
T4 sequence (Q13422 whole entry): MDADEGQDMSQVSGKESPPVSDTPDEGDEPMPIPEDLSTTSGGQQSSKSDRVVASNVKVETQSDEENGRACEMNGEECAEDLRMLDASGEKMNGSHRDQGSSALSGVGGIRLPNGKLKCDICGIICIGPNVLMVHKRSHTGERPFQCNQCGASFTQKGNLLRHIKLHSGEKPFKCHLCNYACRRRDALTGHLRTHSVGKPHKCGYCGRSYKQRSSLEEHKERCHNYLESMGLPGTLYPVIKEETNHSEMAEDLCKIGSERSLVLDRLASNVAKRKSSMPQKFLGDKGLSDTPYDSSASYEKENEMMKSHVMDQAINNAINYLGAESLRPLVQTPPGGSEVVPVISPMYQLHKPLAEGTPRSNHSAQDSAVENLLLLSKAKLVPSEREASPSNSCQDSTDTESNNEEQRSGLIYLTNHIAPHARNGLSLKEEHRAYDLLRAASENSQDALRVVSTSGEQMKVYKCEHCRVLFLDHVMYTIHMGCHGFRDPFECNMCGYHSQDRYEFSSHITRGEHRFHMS
T4 sequence (Q96SW2 whole entry): as the sequence (Q96SW2 whole entry) above
T4 sequence (Q16531 whole entry partner): as the sequence (Q16531 whole entry partner) above
T2 sequence (Q9UKT9 whole entry): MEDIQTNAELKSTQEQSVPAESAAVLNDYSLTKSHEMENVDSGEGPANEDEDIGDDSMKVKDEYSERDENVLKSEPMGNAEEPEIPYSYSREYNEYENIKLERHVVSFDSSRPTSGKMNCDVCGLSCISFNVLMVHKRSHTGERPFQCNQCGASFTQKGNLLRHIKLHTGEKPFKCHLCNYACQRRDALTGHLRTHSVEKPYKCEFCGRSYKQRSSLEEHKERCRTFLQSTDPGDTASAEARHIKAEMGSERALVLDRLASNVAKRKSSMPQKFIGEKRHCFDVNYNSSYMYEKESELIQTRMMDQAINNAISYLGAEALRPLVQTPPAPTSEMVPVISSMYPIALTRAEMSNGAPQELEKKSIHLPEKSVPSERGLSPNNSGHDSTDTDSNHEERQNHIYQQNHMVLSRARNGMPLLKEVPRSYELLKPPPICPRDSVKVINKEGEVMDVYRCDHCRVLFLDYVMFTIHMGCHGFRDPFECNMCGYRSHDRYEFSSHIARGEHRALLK
T2 sequence (Q96SW2 whole entry): as the sequence (Q96SW2 whole entry) above
T2 sequence (Q16531 whole entry partner): as the sequence (Q16531 whole entry partner) above
T1 sequence (Q96SW2 whole entry): as the sequence (Q96SW2 whole entry) above
T5 sequence (Q9UKS7 whole entry): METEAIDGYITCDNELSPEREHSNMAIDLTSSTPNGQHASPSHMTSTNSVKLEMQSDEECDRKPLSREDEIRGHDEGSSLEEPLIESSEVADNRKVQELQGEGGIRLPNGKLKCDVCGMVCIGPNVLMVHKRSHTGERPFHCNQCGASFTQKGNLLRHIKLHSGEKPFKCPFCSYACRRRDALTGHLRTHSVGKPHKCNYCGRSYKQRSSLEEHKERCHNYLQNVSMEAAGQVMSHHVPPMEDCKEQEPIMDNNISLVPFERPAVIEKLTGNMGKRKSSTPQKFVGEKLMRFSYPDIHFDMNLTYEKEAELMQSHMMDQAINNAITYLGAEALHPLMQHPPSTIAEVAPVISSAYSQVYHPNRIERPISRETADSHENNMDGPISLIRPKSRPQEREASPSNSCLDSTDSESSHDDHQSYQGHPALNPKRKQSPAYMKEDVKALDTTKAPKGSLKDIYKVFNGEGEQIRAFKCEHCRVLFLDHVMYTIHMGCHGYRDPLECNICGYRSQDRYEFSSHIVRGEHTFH
T5 sequence (Q96SW2 whole entry): as the sequence (Q96SW2 whole entry) above
T5 sequence (Q16531 whole entry partner): as the sequence (Q16531 whole entry partner) above
T6 sequence (P30291 whole entry): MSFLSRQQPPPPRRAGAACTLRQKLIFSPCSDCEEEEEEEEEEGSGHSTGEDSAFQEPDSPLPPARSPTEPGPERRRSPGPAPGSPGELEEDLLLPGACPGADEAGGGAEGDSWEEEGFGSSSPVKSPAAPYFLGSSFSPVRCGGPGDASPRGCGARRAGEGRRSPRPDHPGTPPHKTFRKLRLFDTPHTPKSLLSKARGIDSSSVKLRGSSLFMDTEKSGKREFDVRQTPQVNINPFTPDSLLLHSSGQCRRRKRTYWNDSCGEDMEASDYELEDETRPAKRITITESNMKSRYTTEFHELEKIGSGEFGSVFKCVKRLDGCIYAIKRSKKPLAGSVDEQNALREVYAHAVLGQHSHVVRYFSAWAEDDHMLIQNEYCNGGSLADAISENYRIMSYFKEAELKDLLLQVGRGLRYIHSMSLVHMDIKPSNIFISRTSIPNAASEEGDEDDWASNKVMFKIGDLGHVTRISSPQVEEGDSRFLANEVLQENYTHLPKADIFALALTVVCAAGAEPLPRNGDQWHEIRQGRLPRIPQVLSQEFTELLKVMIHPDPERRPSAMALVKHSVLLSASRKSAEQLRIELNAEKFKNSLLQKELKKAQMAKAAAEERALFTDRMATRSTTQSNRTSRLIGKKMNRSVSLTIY
T6 sequence (Q96SW2 whole entry): as the sequence (Q96SW2 whole entry) above
T6 sequence (Q16531 whole entry partner): as the sequence (Q16531 whole entry partner) above

Structure (SMILES): O=C1CCC(N2Cc3cc(CN4CCN(Cc5ccccc5-c5ccc(Cl)cc5)CC4)ccc3C2=S)C(=O)N1 (stereo not shown) [GT-08166, 3-(5-((4-((4'-chloro-[1,1'-biphenyl]-2-yl)methyl)piperazin-1-yl)methyl)-1-thioxoisoindolin-2-yl)piperidine-2,6-dione]
- GSPT1 substrate protein remaining % (GSPT1; [11]): A (0% ≤ substrate protein remaining % ≤ 80%)
- inhibition at 0.01 µM [1]: 30 to 40%
- inhibition at 0.5 µM [1]: 80 to 100%
- inhibition at 0.01 µM [2]: 10 to 20%
- inhibition at 0.5 µM [2]: 60 to 70%
- inhibition at 0.01 µM [3]: 10 to 20%
- inhibition at 0.5 µM [3]: 80 to 100%
- inhibition at 0.01 µM [4]: 10 to 20%
- inhibition at 0.5 µM [4]: 80 to 100%
- inhibition at 0.5 µM [5]: 20 to 30%
- inhibition at 2 µM [5]: 60 to 80%
- inhibition at 0.01 µM [6]: 10 to 20%
- inhibition at 0.5 µM [6]: 80 to 100%
- inhibition at 0.01 µM [7]: 40 to 50%
- inhibition at 0.5 µM [7]: 80 to 100%
- inhibition at 0.5 µM [8]: 60 to 70%
- inhibition at 0.01 µM [9]: 10 to 20%
- inhibition at 0.5 µM [9]: 80 to 100%
- IKZF3 substrate protein remaining % (IKZF3; [11]): A (0% ≤ substrate protein remaining % ≤ 80%)
- CK1α substrate protein remaining % (CK1α; [11]): B (80%< substrate protein remaining %≤ 100%)
- IKZF 1 substrate protein remaining % (IKZF1; [11]): B (80%< substrate protein remaining %≤ 100%)
- IKZF2 substrate protein remaining % (IKZF2; [11]): A (0% ≤ substrate protein remaining % ≤ 80%)
- Wee1 substrate protein remaining % (WEE1; [11]): A (0% ≤ substrate protein remaining % ≤ 80%)

Structure (SMILES): O=C1CCC(N2Cc3cc(CN4CCN(c5nc(Cl)nc6ccsc56)CC4)ccc3C2=S)C(=O)N1 (stereo not shown) [GT-09331, 3-(5-((4-(2-chlorothieno[3,2-d]pyrimidin-4-yl)piperazin-1-yl)methyl)-1-thioxoisoindolin-2-yl)piperidine-2,6-dione]
- inhibition at 0.01 µM ([10]; read-out: Inhibition Rate at 10 nM (%)): 30 to 40%
- inhibition at 0.5 µM ([10]; read-out: Inhibition Rate at 500 nM (%)): 50 to 60%
- GSPT1 substrate protein remaining % (GSPT1; [11]): A (0% ≤ substrate protein remaining % ≤ 80%)
- inhibition at 0.5 µM [5]: 80 to 100%
- inhibition at 2 µM [5]: 80 to 100%
- inhibition at 0.01 µM [8]: 20 to 30%
- inhibition at 0.5 µM [8]: 40 to 50%
- IKZF3 substrate protein remaining % (IKZF3; [11]): B (80%< substrate protein remaining %≤ 100%)
- CK1α substrate protein remaining % (CK1α; [11]): B (80%< substrate protein remaining %≤ 100%)
- IKZF 1 substrate protein remaining % (IKZF1; [11]): B (80%< substrate protein remaining %≤ 100%)
- IKZF2 substrate protein remaining % (IKZF2; [11]): B (80%< substrate protein remaining %≤ 100%)
- Wee1 substrate protein remaining % (WEE1; [11]): B (80%< substrate protein remaining %≤ 100%)

Structure (SMILES): O=C1CCC(N2Cc3cc(CN4CC=C(c5cccc(F)c5Cl)CC4)ccc3C2=S)C(=O)N1 (stereo not shown) [GT-08206, 3-(5-((4-(2-chloro-3-fluorophenyl)-3,6-dihydropyridin-1(2H)-yl)methyl)-1-thioxoisoindolin-2-yl)piperidine-2,6-dione]
- GSPT1 substrate protein remaining % (GSPT1; [12]): A (0% ≤ substrate protein remaining % ≤ 80%)
- inhibition at 0.01 µM [1]: 80 to 100%
- inhibition at 0.5 µM [1]: 80 to 100%
- inhibition at 0.01 µM [2]: 80 to 100%
- inhibition at 0.5 µM [2]: 80 to 100%
- inhibition at 0.01 µM [3]: 70 to 80%
- inhibition at 0.5 µM [3]: 80 to 100%
- inhibition at 0.01 µM [4]: 50 to 60%
- inhibition at 0.5 µM [4]: 80 to 100%
- inhibition at 0.5 µM [5]: 40 to 53%
- inhibition at 2 µM [5]: 80 to 100%
- inhibition at 0.01 µM [6]: 80 to 100%
- inhibition at 0.5 µM [6]: 80 to 100%
- inhibition at 0.01 µM [7]: 50 to 60%
- inhibition at 0.5 µM [7]: 80 to 100%
- inhibition at 0.01 µM [8]: 0 to 5%
- inhibition at 0.5 µM [8]: 80 to 100%
- inhibition at 0.01 µM [9]: 60 to 70%
- inhibition at 0.5 µM [9]: 80 to 100%
- IKZF3 substrate protein remaining % (IKZF3; [12]): A (0% ≤ substrate protein remaining % ≤ 80%)
- CK1α substrate protein remaining % (CK1α; [12]): A (0% ≤ substrate protein remaining % ≤ 80%)
- IKZF 1 substrate protein remaining % (IKZF1; [12]): A (0% ≤ substrate protein remaining % ≤ 80%)
- IKZF2 substrate protein remaining % (IKZF2; [12]): A (0% ≤ substrate protein remaining % ≤ 80%)
- Wee1 substrate protein remaining % (WEE1; [12]): A (0% ≤ substrate protein remaining % ≤ 80%)

Structure (SMILES): O=C1CCC(N2Cc3cc(CN4CC=C(c5ccsc5)CC4)ccc3C2=S)C(=O)N1 (stereo not shown) [GT-08172, 3-(5-((4-(thiophen-3-yl)-3,6-dihydropyridin-1(2H)-yl)methyl)-1-thioxoisoindolin-2-yl)piperidine-2,6-dione]
- GSPT1 substrate protein remaining % (GSPT1; [11]): A (0% ≤ substrate protein remaining % ≤ 80%)
- inhibition at 0.01 µM [1]: 60 to 80%
- inhibition at 0.5 µM [1]: 80 to 100%
- inhibition at 0.01 µM [2]: 20 to 30%
- inhibition at 0.5 µM [2]: 80 to 100%
- inhibition at 0.01 µM [3]: 60 to 70%
- inhibition at 0.5 µM [3]: 80 to 100%
- inhibition at 0.01 µM [4]: 50 to 60%
- inhibition at 0.5 µM [4]: 80 to 100%
- inhibition at 0.5 µM [5]: 80 to 100%
- inhibition at 2 µM [5]: 80 to 100%
- inhibition at 0.01 µM [6]: 60 to 70%
- inhibition at 0.5 µM [6]: 80 to 100%
- inhibition at 0.01 µM [7]: 40 to 50%
- Inhibition Rate at 500 nM (%) ([7]; MM.1S, 500 nM, 96 hours): la10
- inhibition at 0.01 µM [8]: 50 to 60%
- inhibition at 0.5 µM [8]: 70 to 80%
- inhibition at 0.01 µM [9]: 20 to 30%
- inhibition at 0.5 µM [9]: 80 to 100%
- IKZF3 substrate protein remaining % (IKZF3; [11]): A (0% ≤ substrate protein remaining % ≤ 80%)
- CK1α substrate protein remaining % (CK1α; [11]): A (0% ≤ substrate protein remaining % ≤ 80%)
- IKZF 1 substrate protein remaining % (IKZF1; [11]): A (0% ≤ substrate protein remaining % ≤ 80%)
- IKZF2 substrate protein remaining % (IKZF2; [11]): A (0% ≤ substrate protein remaining % ≤ 80%)
- Wee1 substrate protein remaining % (WEE1; [11]): A (0% ≤ substrate protein remaining % ≤ 80%)

Structure (SMILES): O=C1CCC(N2Cc3cc(CN4CCC(N(c5ccccc5)c5ccccn5)CC4)ccc3C2=S)C(=O)N1 (stereo not shown) [GT-07846, 3-(5-((4-(phenyl(pyridin-2-yl)amino)piperidin-1-yl)methyl)-1-thioxoisoindolin-2-yl)piperidine-2,6-dione]
- GSPT1 substrate protein remaining % (GSPT1; [12]): A (0% ≤ substrate protein remaining % ≤ 80%)
- inhibition at 0.01 µM [1]: 10 to 18%
- inhibition at 0.5 µM [1]: 80 to 100%
- inhibition at 0.01 µM [2]: 20 to 30%
- inhibition at 0.5 µM [2]: 60 to 70%
- inhibition at 0.01 µM [3]: 70 to 80%
- inhibition at 0.5 µM [3]: 80 to 100%
- inhibition at 0.01 µM [4]: 30 to 40%
- inhibition at 0.5 µM [4]: 80 to 100%
- inhibition at 0.5 µM [5]: 53 to 60%
- inhibition at 2 µM [5]: 80 to 100%
- inhibition at 0.01 µM [6]: 40 to 50%
- inhibition at 0.5 µM [6]: 80 to 100%
- inhibition at 0.01 µM [7]: 60 to 70%
- inhibition at 0.5 µM [7]: 80 to 100%
- inhibition at 0.5 µM [8]: 40 to 50%
- inhibition at 0.01 µM [9]: 40 to 50%
- inhibition at 0.5 µM [9]: 80 to 100%
- IKZF3 substrate protein remaining % (IKZF3; [12]): A (0% ≤ substrate protein remaining % ≤ 80%)
- CK1α substrate protein remaining % (CK1α; [12]): B (80%< substrate protein remaining %≤ 100%)
- IKZF 1 substrate protein remaining % (IKZF1; [12]): A (0% ≤ substrate protein remaining % ≤ 80%)
- IKZF2 substrate protein remaining % (IKZF2; [12]): A (0% ≤ substrate protein remaining % ≤ 80%)
- Wee1 substrate protein remaining % (WEE1; [12]): A (0% ≤ substrate protein remaining % ≤ 80%)
